Test results taken from patent US12668589B2, “N-formamidopyrazoline derivative as P2X3 receptor antagonist and use thereof” (HANGZHOU WESTAN PHARMACEUTICAL TECHNOLOGY CO., LTD, priority 2020, dated 2026).
Read-outs that look alike come from different tables or passages of the source.

Legend:
[1] = In-vivo pharmacokinetic experiments on rats; design: species or system SD rats; conditions: for clearance / half-life / Cmax / Vd / Tmax / bioavailability: both sexes, SD, plasma; for Vd: read-out: Vss
Method: SD rats were used, half male and half female, which were administered with compounds by intravenous injection (3 mg/kg), intraperitoneal injection (10 mg/kg) or gavage (30 mg/kg) at different doses. At different time points after administration, blood was collected into EDTA blood sample collection tubes. Plasma was separated by centrifugation and stored at −20° C. pending analysis.
Standard curve and quality control sample preparation and processing: a compound stock solution was taken and diluted with 50% methanol water to make standard working solutions containing each compound concentration of 20 to 10,000 ng/mL, and 60, 600, 6,000 ng/mL quality control working solutions. 47.5 μL of blank rat plasma was taken, respectively, in which 2.50 μL of the standard curve working solutions and quality control working solutions were added to prepare standard curve samples with each compound concentration of 1.00 to 500.00 ng/mL and quality control samples with concentrations of 3.00, 30.00 and 300.00 ng/mL. 200 μL of acetonitrile (containing 5 ng/mL internal standard verapamil) was added into each sample. After vortex oscillation for 3 minutes, centrifuging was conducted for 15 minutes at 20,000 rcf at 4° C. Supernatants were taken for LC-MS/MS analysis.
Compound blood sample processing: 5 μL of plasma samples were taken. 45 μL of Blank rat plasma was added. 200 μL of Acetonitrile (containing 5 ng/mL internal standard verapamil) was added. After vortex oscillation for 3 minutes, centrifuging was conducted for 15 minutes at 20,000 rcf at 4° C. Supernatants were taken for LC-MS/MS analysis.

[2] = Liver microsomal enzyme stability test; type: in vitro ADME; conditions: Human liver microsomes 0.5 mg/mL, 1 μM compound, 1 mM NADPH, 37° C.; for half-life at 1 μM: read-out: t1/2 (=0.693/k, min)
Method: An LC-MS/MS method, wherein A liquid phase method adopts a gradient elution method. Chromatographic Column: ACQUITY UPLC® BEH C18 (2.1 mm×50 mm, 1.7 μm); Flow Rate: 0.35 mL/min; Injection Volume: 1 μL (YS001), 3 μL (testosterone); Column Temperature: 40° C.; Automatic Sampler Temperature: 4° C.; Mobile Phase Compositions: mobile phase A: 0.1% formic acid water, and mobile phase B: acetonitrile. Mass spectrometry conditions adopt an ESI source, and positive ion and multiple reaction monitoring (MRM) modes were used for mass spectrometry analysis.
Liver microsome incubation samples were taken, in which 400 μL of an acetonitrile solution containing an internal standard (1 ng/mL loratadine) was added for a termination reaction. Even vortex mixing was conducted at 2,500 rpm. Centrifuging was conducted for 10 minutes at 20,000 rcf at 4° C. Supernatants were taken into clean lined tubes. Contents of prototype drugs were detected by LC-MS/MS.
Metabolic rate test: human liver microsomes were taken, unfrozen and thawed on ice, and gently shaken evenly. […] 80 μL of the above solution was pipetted, and pre-incubated for 5 minutes in a 37° C. water bath, then, 20 μL of a 5 mM NADPH solution was added, and incubating was conducted in a 37° C. water bath. […] After reaction for 0, 10, 30, 60, and 90 minutes, the reaction was terminated with 4 times the volume of acetonitrile (containing 1 ng/mL internal standard loratadine). Even vortex mixing was conducted. High-speed centrifuging was conducted for 10 minutes at 20,000 rcf at 4° C. Supernatants were taken for LC-MS/MS detection. Each incubation sample was subjected to a parallel test in triplicate. Positive control was metabolic samples of microsomes of corresponding species to a positive drug testosterone (1 μM). The reaction was terminated with 4 times the volume of acetonitrile (containing 1 ng/mL internal standard loratadine). Incubation time points were 0, 30, 60 minutes.
Analyst 1.6.3 software was used for data collecting. After integration parameters were optimized, target chromatographic peaks were automatically integrated, individual chromatographic peaks were not allowed to be integrated separately or manually, and retention time and a peak area were calculated. Data was collected by Analyst 1.6.3, and subjected to integration processing to obtain the retention time and the peak area, and a peak area ratio of an analyte to an internal standard was calculated. Then, Microsoft Office Excel was used for secondary processing to calculate a half-life period t1/2 and a clearance rate CLint thereof. A residual percentage (% Control) of tested compounds was calculated from a ratio of a concentration of a non-zero time point sample to a concentration of a zero-time sample. Ln (% Control) was plotted against incubation time and subjected to linear fitting. An elimination constant (ke, 1/min), an elimination half-life period (t1/2, min) and an in-vitro intrinsic clearance rate (CLint, μL/(mg·min)) of the tested compounds were calculated. T1/2=0.693/ke, CLint=ke/Cprotein (Note: ke is a slope, and Cprotein is a protein concentration.)

rP2X3 = biological target: T1, rP2X3 (Rattus norvegicus, UniProt P49654); assay: Inhibitory activity against P2X3 in rats (electrophysiological method); type: cell-based
T1 construct: expressed in transfected cells; host or cells: HEK293
T1 sequence (P49654 1-397): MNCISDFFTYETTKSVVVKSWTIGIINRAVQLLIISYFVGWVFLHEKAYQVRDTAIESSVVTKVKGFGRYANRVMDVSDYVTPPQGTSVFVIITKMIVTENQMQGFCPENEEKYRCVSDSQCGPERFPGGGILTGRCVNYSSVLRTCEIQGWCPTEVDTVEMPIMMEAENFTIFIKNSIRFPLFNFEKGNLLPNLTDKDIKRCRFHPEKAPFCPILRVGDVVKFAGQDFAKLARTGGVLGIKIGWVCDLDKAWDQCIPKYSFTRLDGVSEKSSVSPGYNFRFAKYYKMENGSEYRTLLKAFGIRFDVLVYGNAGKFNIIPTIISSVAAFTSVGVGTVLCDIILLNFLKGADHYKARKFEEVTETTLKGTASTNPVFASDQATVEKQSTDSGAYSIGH

taste of SD rats = assay: Rat taste test (quinine water / tap water drinking); type: in vivo; conditions: 10 mg/kg intraperitoneal injection; for Water drinking amount, Tap water: free drinking 15 minutes, amounts measured to the nearest 0.1 mL; for Water drinking amount, Sum: tap plus quinine water; for Water drinking amount, Sum / Water drinking amount, Quinine: 15 minutes, measured to the nearest 0.1 mL; for Water drinking amount, Quinine: water with 0.3 mM quinine hydrochloride
Method: Experimental purpose: to observe an effect of title compounds on taste of SD rats.
• 1.1) Animals and grouping: 40 male SD rats, with about 300 grams per rat. […] A bottle of normal drinking water and a bottle of drinking water containing 0.3 mM quinine hydrochloride were placed in each cage at the same time, and left and right positions where the two bottles of water were placed in all animal feeding cages were the same. After the animals were allowed to freely drink water for 15 minutes, drinking amounts of the two bottles of water were measured respectively to the nearest 0.1 mL. • 1.5) Data statistics: drinking amounts of quinine bitter water and tap water and a total water drinking amount thereof as well as a percentage of quinine water in the total water drinking amount were counted respectively. Water drinking amounts of the bitter water of animals in each group were compared. Whether differences between groups were significant was compared by analysis of variance. 2) Experimental Results

[3] = iv, Rat PK i.v 3 mg/kg, read-out: Cmax/Co
[4] = po, Rat PK p.o 30 mg/kg, read-out: Cmax

ACU ([1]; Rat PK i.v 3 mg/kg) [kg·ng·h/mL/mg]	ACU ([1]; Rat PK p.o 30 mg/kg) [kg·ng·h/mL/mg]	clearance ([1]; iv, Rat PK i.v 3 mg/kg) [mL/min/kg]	half-life ([1]; iv, Rat PK i.v 3 mg/kg) [h]	Cmax [1, 3] [ng/mL]	Vd ([1]; iv, Rat PK i.v 3 mg/kg) [L/kg]	Tmax ([1]; po, Rat PK p.o 30 mg/kg) [h]	bioavailability ([1]; po, Rat PK p.o 30 mg/kg) [%]	half-life ([1]; po, Rat PK p.o 30 mg/kg) [h]	Cmax [1, 4] [ng/mL]	Clint, microsome (=k/Cprotein, μL × min^−1 × mg^−1 proteins) [2]	ke (=−slope, min^−1) [2] [min⁻¹]	half-life at 1 μM [2] [min]	IC50 (rP2X3) [nM]	Water drinking amount, Tap water (taste of SD rats)	Water drinking amount, Sum (taste of SD rats)	Water drinking amount, Quinine (taste of SD rats)	Structure (SMILES)
427.84	367.68	39.2	0.6	1750	2.05	1.8	86	2.23	4950	3.8 μL × min^−1 × mg^−1 proteins	0.0019	364	165	11.84	13.87	2.03	CCOC(=O)N(C)[C@H]1CN(C(=O)N[C@H](C)c2cnc(C(F)(F)F)nc2)N=C1c1ccc(C)cc1 [Compound 4, (S)-4-(N-methyl-N-ethoxycarbonylamino)-3-(4-methylphenyl)-N-((R)-1-(2-(trifluoromethyl)pyrimidin-5-yl)ethyl)-4,5-dihydro-1H-pyrazol-1-carboxamide]
275.63	766	26.5	1.31	2210	2.8	0.92	36	2.71	1450	21.4 μL × min^−1 × mg^−1 proteins	0.0107	64.8	90	12.26	14.13	1.87	Cc1ccc(C2=NN(C(=O)N[C@H](C)c3ccc(C(F)(F)F)nc3)C[C@@H]2N2CCOC2=O)cc1 [Compound 22]
